These results are taken from patent US20230248723A1, “PYRROLO[2,3-B]PYRAZINE COMPOUNDS AS CCCDNA INHIBITORS FOR THE TREATMENT OF HEPATITIS B VIRUS (HBV) INFECTION” (Hoffmann-La Roche Inc., priority 2017, published 2023).

Where two headings read alike, the source gives them in different places.

Assay type in all cases: cell-based
One series relates to HBsAg. Briefly: HBsAg, HBV-infected HepaRG. The conditions noted are these: Hepatitis B virus.
In another series the test system is HBeAg. The series can be described thus: HBeAg, HBV-infected HepaRG. The conditions noted are these: Hepatitis B virus.
The test system of series [1] is albumin (secreted, cellular toxicity marker). The series can be described thus: Albumin (in vitro cellular tox marker), multiplex assay, PHH. To be noted: human. The method, then: Fresh primary human hepatocytes (PXB-PHH) harvested from humanized mice (uPA/SCID mice)—herein called PHH—were obtained from PhoenixBio Co., Ltd (Japan). Cells were seeded on a collagen I-coated plate at the following cell density: 35,000 cells/well (384-well), 70,000 cells/well (96-well), or, 400,000 cells/well (24-well) in modified hepatocyte clonal growth medium (dHCGM). dHCGM is a DMEM medium containing 100 U/ml Penicillin, 100 μg/ml Streptomycin, 20 mM Hopes, 44 mM NaHCO3, 15 μg/ml L-proline, 0.25 μg/ml insulin, 50 nM Dexamethazone, 5 ng/ml EGF, 0.1 mM Asc-2P, 2% DMSO and 10% FBS (Ishida et al., 2015). Cells were cultured at 37° C. incubator in a humidified atmosphere with 5% CO2. Culture medium was replaced 24 h post-plating and every 2 days until harvest.
Following 4 day of maturation with 1 μM MB-1, HLC were incubated with HBV (purified from CHB individuals) at multiplicity of infection (MOI) 10-40 without PEG for 24 hr; virus inoculum was removed the following day. […] Compound treatment in HLC and PHH was started at day 3 post infection. Compound (in powder) was dissolved in DMSO; the final concentration of DMSO added to cells is 1%. Fresh compound was replenished every 2 day until cells were harvested at day 10 (PHH), or day 14 (HLC). Compound effect on HBV and cellular toxicity was measured by multiplex assay (HBsAg, HBeAg, albumin), branched DNA (pgRNA), or digital PCR (cccDNA) and depicted as % of inhibition compared to DMSO control. Graphs were prepared using Spotfire software.
A custom, Luminex-based multiplex assay that simultaneously measured HBeAg, albumin, and HBsAg was developed by Radix BioSolutions (Georgetown, Tex.). This is a sandwich immunoassay; each capture antibody was coupled with xMAP™ Luminex magnetic beads. The dynamic ranges of analyte detection are as follows: HBeAg (1-316 ng/ml), albumin (3.1-10,000 ng/ml), and HBsAg (0.1-100 ng/ml) with coefficient variant (CV) […]. Samples were read on FlexMAP 3D (Luminex) and analyzed by Genedata software.

Turning to `O=C(NC(CO)CO)c1c[nH]c2ncc(C3CC3)nc12` [compound 7], the concentration for half-maximal inhibition (IC50) (as a rule, the concentration needed to halve the response being measured) with HBsAg (read-out: HBsAg IC50 (μM) Median, HepaRG, HepG2.2.15-derived HBV GT D, MOI 40) amounted to 9.01 µM; in the series on HBsAg (read-out: HBsAg IC50 (μM) Median, HepaRG, HepG2.2.15-derived HBV GT D, MOI 125), 10.3 µM; in the series with HBsAg (read-out: HBsAg IC50 (μM) Median, HepaRG, patient-derived HBV GT D, MOI 40) it was 0.67 µM; in the series with HBsAg (read-out: HBsAg IC50 (μM) Median, HepaRG, patient-derived HBV GT D, MOI 125), 0.88 µM; with HBeAg (read-out: HBeAg IC50 (μM) Median, HepaRG, HepG2.2.15-derived HBV GT D, MOI 40) it was 6.11 µM; in the series with HBeAg (read-out: HBeAg IC50 (μM) Median, HepaRG, HepG2.2.15-derived HBV GT D, MOI 125), 6.55 µM. Besides, the IC50 in the series on HBeAg (read-out: HBeAg IC50 (μM) Median, HepaRG, patient-derived HBV GT D, MOI 40) worked out at 0.41 µM; in the series with HBeAg (read-out: HBeAg IC50 (μM) Median, HepaRG, patient-derived HBV GT D, MOI 125), 0.52 µM. Besides, the IC50 at 7 days in series [1] (HepG2.2.15-derived HBV GT D, MOI 40, read-out: In vitro tox albumin IC50 (μM) Median) is 21.1 µM; in series [1] (HepG2.2.15-derived HBV GT D, MOI 125, read-out: In vitro tox albumin IC50 (μM) Median), 20.2 µM; in series [1] (primary human hepatocytes (PXB-PHH) infected with HBV, patient-derived HBV (GT D), read-out: In vitro tox albumin IC50 (μM) Median), 20.9 µM; in series [1] (primary human hepatocytes (PXB-PHH) infected with HBV, patient-derived HBV GT A, MOI 40, day 10 pi, read-out: In vitro tox albumin IC50 (μM) Median), 20.3 µM; in series [1] (primary human hepatocytes (PXB-PHH) infected with HBV, patient-derived HBV GT B, MOI 40, day 10 pi, read-out: In vitro tox albumin IC50 (μM) Median), 19.2 µM; in series [1] (primary human hepatocytes (PXB-PHH) infected with HBV, patient-derived HBV GT C, MOI 40, day 10 pi, read-out: In vitro tox albumin IC50 (μM) Median) it was 23.2 µM. Also, the IC50 at 7 days turned out to be 23.7 µM in series [1] (primary human hepatocytes (PXB-PHH) infected with HBV, patient-derived HBV GT D, MOI 40 (Table 6), read-out: In vitro tox albumin IC50 (μM) Median); 23.7 µM in series [1] (primary human hepatocytes (PXB-PHH) infected with HBV, patient-derived HBV GT D, MOI 40, day 10 pi (Table 5), read-out: In vitro tox albumin IC50 (μM) Median); 20.5 µM in series [1] (primary human hepatocytes (PXB-PHH) infected with HBV, patient-derived HBV GT D, MOI 125, read-out: In vitro tox albumin IC50 (μM) Median).
